The text below walks through data of ChEMBL document CHEMBL1782021, “Synthesis of 2-aziridinyl phosphonates by modified Gabriel-Cromwell reaction and their antibacterial activities” (2011).

Common to all, as to type: functional
The test system of one assay is Gordonia sp. The assay is described as follows: Antibacterial activity against Gordonia sp. isolate Fs48 at 10 ug/disk after 24 hrs by disc diffusion assay. The conditions noted are these: Gordonia sp. (in: high G+C Gram-positive bacteria), isolate Fs48, 24 h; read-out: DIZ.
For a further assay, the system named is Kocuria. Briefly: Antibacterial activity against Kocuria sp. isolate Fs24 at 10 ug/disk after 24 hrs by disc diffusion assay. The following applies: isolate Fs24, 24 h, read-out: DIZ. For orientation: Agar diffusion results depend on both activity and mobility in agar.
The test system of a further assay is Escherichia coli. The assay is described as follows: Antibacterial activity against Escherichia coli DH5[alpha] at 10 ug/disk after 24 hrs by disc diffusion assay. The following applies: read-out: DIZ.
For another assay, the system named is Bacillus subtilis. The assay is described as follows: Antibacterial activity against Bacillus subtilis assessed as diameter of zone of inhibition at 10 ug/disk after 24 hrs by disc diffusion assay. The following applies: read-out: DIZ.
In another assay the test system is Brevundimonas. Briefly: Antibacterial activity against Brevundimonas sp. isolate Fs30 at 10 ug/disk after 24 hrs by disc diffusion assay. The following applies: isolate Fs30, 24 h, read-out: DIZ.

As to `CN[C@@H]1[C@H](O[C@H]2[C@H](O[C@H]3[C@H](O)[C@@H](O)[C@H](N=C(N)N)[C@@H](O)[C@@H]3N=C(N)N)O[C@@H](C)[C@]2(O)C=O)O[C@@H](CO)[C@H](O)[C@H]1O` [STREPTOMYCIN], the zone of inhibition at 10 µg/disc in the assay on Gordonia sp. was found to be 29 mm; in the assay with Kocuria, 26 mm; with Escherichia coli, 19.7 mm; in the assay with Bacillus subtilis, 14 mm; in the assay with Brevundimonas, 29.3 mm.
With `CC1(C)S[C@@H]2[C@H](NC(=O)[C@H](N)c3ccccc3)C(=O)N2[C@H]1C(=O)O` [AMPICILLIN], the zone of inhibition at 10 µg/disc in the assay on Kocuria is 47.7 mm; with Escherichia coli, 16.7 mm; in the assay with Bacillus subtilis, 17.3 mm; in the assay on Brevundimonas, 10.7 mm.
